Assay results as given in publication PMC11882969 (Nature Communications, 2025).
Read-outs that look alike come from different tables or passages of the source.

Key:
hCB1 = hCB1 (Homo sapiens, UniProt P21554); test: bioSensAll ebBRET signaling profiling, hCB1; type: cell-based; parameters: host or cells: HEK293SL cells, transient PEI transfection; conditions: for Barr2+GRK2 hCB1 response: Barr2+GRK2 biosensor; for Gi1 hCB1 / GoB hCB1: single replicate values, FigS6a; for EC50: read-out: EC50 [95% CI]; for Emax: normalized to CP-55,940
Chain of hCB1 (P21554 whole entry): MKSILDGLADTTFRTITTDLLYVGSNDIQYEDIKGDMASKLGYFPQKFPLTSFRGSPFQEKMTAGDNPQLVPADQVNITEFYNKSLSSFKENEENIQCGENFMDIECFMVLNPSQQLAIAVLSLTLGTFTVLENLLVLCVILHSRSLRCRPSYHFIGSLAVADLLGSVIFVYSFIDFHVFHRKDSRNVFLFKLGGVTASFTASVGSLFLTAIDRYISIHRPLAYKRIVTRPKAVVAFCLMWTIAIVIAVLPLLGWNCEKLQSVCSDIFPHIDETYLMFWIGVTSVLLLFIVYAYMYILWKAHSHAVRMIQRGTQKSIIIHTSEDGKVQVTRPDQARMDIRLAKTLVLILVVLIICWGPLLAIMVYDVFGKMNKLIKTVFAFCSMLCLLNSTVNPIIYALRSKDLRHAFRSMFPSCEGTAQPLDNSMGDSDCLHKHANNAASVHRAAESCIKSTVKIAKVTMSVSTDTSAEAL

CB1 (rCB1) [1] = biological target: T1, CB1 (rCB1) (Rattus norvegicus, UniProt P20272); test: Radioligand competition binding, [3H]-CP-55,940, rat brain membranes
T1 sequence (P20272 whole entry): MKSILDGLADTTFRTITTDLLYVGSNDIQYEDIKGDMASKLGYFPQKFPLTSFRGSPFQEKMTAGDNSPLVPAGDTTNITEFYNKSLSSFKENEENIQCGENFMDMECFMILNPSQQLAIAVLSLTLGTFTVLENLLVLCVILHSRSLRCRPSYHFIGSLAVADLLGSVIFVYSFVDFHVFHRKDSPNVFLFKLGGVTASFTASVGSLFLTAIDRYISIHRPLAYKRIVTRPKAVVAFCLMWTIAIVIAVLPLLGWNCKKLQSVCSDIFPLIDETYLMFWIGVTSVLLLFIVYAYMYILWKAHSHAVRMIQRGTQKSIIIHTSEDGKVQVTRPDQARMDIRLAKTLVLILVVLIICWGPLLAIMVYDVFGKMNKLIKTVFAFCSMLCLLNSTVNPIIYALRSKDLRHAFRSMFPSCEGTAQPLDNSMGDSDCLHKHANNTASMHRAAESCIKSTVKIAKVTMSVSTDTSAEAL

CB1 (rCB1) [2] = biological target: T1, CB1 (rCB1); test: Single-point radioligand displacement screen; type: binding; conditions: 10 µM, 1 µM or 300 nM by cell colour (not visible)

Question: Which “Barr2+GRK2 hCB1 response” value (hCB1; Log [Compound] (M) -4.22186) does the source give for `Cc1nn(Cc2ccc(Cl)cc2)c(C)c1C(=O)OCC1CSc2ccccc2O1` (centres unmarked) [‘5463] here?
Answer: -7.036

Question: What about the “Barr2+GRK2 hCB1 response” value (hCB1; Log [Compound] (M) -4.63927) of the same molecule?
Answer: -40.2196

Question: And the “Barr2+GRK2 hCB1 response” value (hCB1; Log [Compound] (M) -5.05788)?
Answer: -35.4335

Question: And the “Barr2+GRK2 hCB1 response” value (hCB1; Log [Compound] (M) -5.47381)?
Answer: -41.4959

Question: What about the “Barr2+GRK2 hCB1 response” value (hCB1; Log [Compound] (M) -5.89285) of the same molecule?
Answer: -45.6439

Question: What about the “Barr2+GRK2 hCB1 response” value (hCB1; Log [Compound] (M) -6.31878) of the same molecule?
Answer: -47.8774

Question: What about the “Barr2+GRK2 hCB1 response” value (hCB1; Log [Compound] (M) -6.72585) of the same molecule?
Answer: -53.9398

Question: And the “Barr2+GRK2 hCB1 response” value (hCB1; Log [Compound] (M) -7.14267)?
Answer: -43.7294

Question: What about the “Barr2+GRK2 hCB1 response” value (hCB1; Log [Compound] (M) -7.55284) of the same molecule?
Answer: -45.9629

Question: What about the “Barr2+GRK2 hCB1 response” value (hCB1; Log [Compound] (M) -8) of the same molecule?
Answer: -54.2588

Question: And the “Barr2+GRK2 hCB1 response” value (hCB1; Log [Compound] (M) -8.22186)?
Answer: -7.036

Question: And the “Barr2+GRK2 hCB1 response” value (hCB1; Log [Compound] (M) -8.39794)?
Answer: -23.3088

Question: And the “Barr2+GRK2 hCB1 response” value (hCB1; Log [Compound] (M) -8.68787)?
Answer: -41.1769

Question: And the “Barr2+GRK2 hCB1 response” value (hCB1; Log [Compound] (M) -9.15521)?
Answer: -53.6207

Question: And the “Barr2+GRK2 hCB1 response” value (hCB1; Log [Compound] (M) -9.61989)?
Answer: -38.9433

Question: What about the “Barr2+GRK2 hCB1 response” value (hCB1; Log [Compound] (M) -10.0969) of the same molecule?
Answer: -52.3444

Question: And the “Barr2+GRK2 hCB1 response” value (hCB1; Log [Compound] (M) -10.5529)?
Answer: -37.0289

Question: And the “Barr2+GRK2 hCB1 response” value (hCB1; Log [Compound] (M) -11.0177)?
Answer: -49.4727

Question: And the “Barr2+GRK2 hCB1 response” value (hCB1; Log [Compound] (M) -11.4949)?
Answer: -43.0913

Question: And the “Barr2+GRK2 hCB1 response” value (hCB1; Log [Compound] (M) -11.9208)?
Answer: -24.266

Question: And the “Barr2+GRK2 hCB1 response” value (hCB1; Log [Compound] (M) -12.3979)?
Answer: -7.993

Question: What about the “Barr2+GRK2 hCB1 response” value (hCB1; Log [Compound] (M) -12.8861) of the same molecule?
Answer: -18.5227

Question: And the “Barr2+GRK2 hCB1 response” value (hCB1; Log [Compound] (M) -13.3979)?
Answer: 10.832

Question: What about the “Gi1 hCB1” value (hCB1; Log [Compound] (M) -4.22186) of the same molecule?
Answer: 28.0981

Question: And the “GoB hCB1” value (hCB1; Log [Compound] (M) -4.22186)?
Answer: 24.5257

Question: What about the “Gi1 hCB1” value (hCB1; Log [Compound] (M) -4.63927) of the same molecule?
Answer: 21.0665

Question: What about the “GoB hCB1” value (hCB1; Log [Compound] (M) -4.63927) of the same molecule?
Answer: 14.8206

Question: And the “Gi1 hCB1” value (hCB1; Log [Compound] (M) -5.05788)?
Answer: 16.6796

Question: What about the “GoB hCB1” value (hCB1; Log [Compound] (M) -5.05788) of the same molecule?
Answer: 10.4802

Question: What about the “Gi1 hCB1” value (hCB1; Log [Compound] (M) -5.47381) of the same molecule?
Answer: 14.3358

Question: What about the “GoB hCB1” value (hCB1; Log [Compound] (M) -5.47381) of the same molecule?
Answer: 11.0879

Question: And the “Gi1 hCB1” value (hCB1; Log [Compound] (M) -5.89285)?
Answer: 7.716

Question: What about the “GoB hCB1” value (hCB1; Log [Compound] (M) -5.89285) of the same molecule?
Answer: 6.331

Question: What about the “Gi1 hCB1” value (hCB1; Log [Compound] (M) -6.31878) of the same molecule?
Answer: 3.392

Question: And the “GoB hCB1” value (hCB1; Log [Compound] (M) -6.31878)?
Answer: 2.3203

Question: What about the “Gi1 hCB1” value (hCB1; Log [Compound] (M) -6.72585) of the same molecule?
Answer: -0.6618

Question: And the “GoB hCB1” value (hCB1; Log [Compound] (M) -6.72585)?
Answer: -6.013

Question: What about the “Gi1 hCB1” value (hCB1; Log [Compound] (M) -7.14267) of the same molecule?
Answer: -2.705

Question: What about the “GoB hCB1” value (hCB1; Log [Compound] (M) -7.14267) of the same molecule?
Answer: -6.777

Question: And the “Gi1 hCB1” value (hCB1; Log [Compound] (M) -7.55284)?
Answer: -2.958

Question: What about the “GoB hCB1” value (hCB1; Log [Compound] (M) -7.55284) of the same molecule?
Answer: -3.8083

Question: What about the “Gi1 hCB1” value (hCB1; Log [Compound] (M) -8) of the same molecule?
Answer: -2.752

Question: What about the “GoB hCB1” value (hCB1; Log [Compound] (M) -8) of the same molecule?
Answer: -8.791

Question: What about the “Gi1 hCB1” value (hCB1; Log [Compound] (M) -8.22186) of the same molecule?
Answer: 6.512

Question: And the “GoB hCB1” value (hCB1; Log [Compound] (M) -8.22186)?
Answer: 0.4626

Question: What about the “Gi1 hCB1” value (hCB1; Log [Compound] (M) -8.39794) of the same molecule?
Answer: -3.021

Question: And the “GoB hCB1” value (hCB1; Log [Compound] (M) -8.39794)?
Answer: -7.2806

Question: What about the “Gi1 hCB1” value (hCB1; Log [Compound] (M) -8.68787) of the same molecule?
Answer: 0.4468

Question: What about the “GoB hCB1” value (hCB1; Log [Compound] (M) -8.68787) of the same molecule?
Answer: -0.5617

Question: What about the “Gi1 hCB1” value (hCB1; Log [Compound] (M) -9.15521) of the same molecule?
Answer: -1.422

Question: What about the “GoB hCB1” value (hCB1; Log [Compound] (M) -9.15521) of the same molecule?
Answer: -2.124

Question: And the “Gi1 hCB1” value (hCB1; Log [Compound] (M) -9.61989)?
Answer: -0.7093

Question: And the “GoB hCB1” value (hCB1; Log [Compound] (M) -9.61989)?
Answer: -5.475

Question: What about the “Gi1 hCB1” value (hCB1; Log [Compound] (M) -10.0969) of the same molecule?
Answer: -1.0102

Question: What about the “GoB hCB1” value (hCB1; Log [Compound] (M) -10.0969) of the same molecule?
Answer: -3.201

Question: And the “Gi1 hCB1” value (hCB1; Log [Compound] (M) -10.5529)?
Answer: -0.3926

Question: And the “GoB hCB1” value (hCB1; Log [Compound] (M) -10.5529)?
Answer: -3.652

Question: And the “Gi1 hCB1” value (hCB1; Log [Compound] (M) -11.0177)?
Answer: -0.8518

Question: What about the “GoB hCB1” value (hCB1; Log [Compound] (M) -11.0177) of the same molecule?
Answer: -4.381

Question: What about the “Gi1 hCB1” value (hCB1; Log [Compound] (M) -11.4949) of the same molecule?
Answer: -1.279

Question: What about the “GoB hCB1” value (hCB1; Log [Compound] (M) -11.4949) of the same molecule?
Answer: -3.965

Question: And the “Gi1 hCB1” value (hCB1; Log [Compound] (M) -11.9208)?
Answer: -2.99

Question: And the “GoB hCB1” value (hCB1; Log [Compound] (M) -11.9208)?
Answer: -2.853

Question: What about the “Gi1 hCB1” value (hCB1; Log [Compound] (M) -12.3979) of the same molecule?
Answer: -0.25

Question: And the “GoB hCB1” value (hCB1; Log [Compound] (M) -12.3979)?
Answer: -4.034

Question: What about the “Gi1 hCB1” value (hCB1; Log [Compound] (M) -12.8861) of the same molecule?
Answer: -2.879

Question: What about the “GoB hCB1” value (hCB1; Log [Compound] (M) -12.8861) of the same molecule?
Answer: -4.451

Question: What about the “Gi1 hCB1” value (hCB1; Log [Compound] (M) -13) of the same molecule?
Answer: -0.7885

Question: And the “GoB hCB1” value (hCB1; Log [Compound] (M) -13)?
Answer: -4.468

Question: What about the “Gi1 hCB1” value (hCB1; Log [Compound] (M) cell empty) of the same molecule?
Answer: 0.7319

Question: What about the “GoB hCB1” value (hCB1; Log [Compound] (M) cell empty) of the same molecule?
Answer: -2.437

Question: And the “pEC50 [95% CI]” value (hCB1; hCB1 Gi1)?
Answer: 5.3 [3.4 – 5.8]

Question: What about the “pEC50 [95% CI]” value (hCB1; hCB1 GoB) of the same molecule?
Answer: 5.1 [6.0]

Question: What about the EC50 (hCB1; hCB1 Gi1) of the same molecule?
Answer: 4.94 µM

Question: What about the EC50 (hCB1; hCB1 GoB) of the same molecule?
Answer: 7.47 µM

Question: And the Emax (hCB1; read-out: Emax [95% CI], hCB1 Gi1)?
Answer: 31%

Question: And the Emax (hCB1; read-out: Emax [95% CI], hCB1 GoB)?
Answer: 32%

Question: What about the “pKi [95% CI]” value (CB1 (rCB1) [1]; rCB1) of the same molecule?
Answer: 6.1 [5.8 – 6.4]

Question: And the Ki (CB1 (rCB1) [1]; read-out: Ki [95% CI], rCB1, [3H]-CP-55,940)?
Answer: 0.825 µM

Question: And the “% 1H-CP-55,940 displacement (mean) from single point screen” value (CB1 (rCB1) [2])?
Answer: 81.83%
